The source of these data is BindingDB's records for doi:10.1016/j.bmcl.2009.01.068 (Methylgene, 2009).

The nature of assay [1]: Inhibition of c-Met-mediated scattering in HGF-stimulated human DU145 cells.
Assay [2] is described as follows: Inhibition of c-Met-mediated migration in HGF-stimulated human A549 cells by wound healing assay.

Consider `CCn1cnc(-c2cc3nccc(Oc4ccc(NC(=O)N5CCN(c6ccc(F)cc6)C5=O)cc4F)c3s2)c1` [N-(4-(2-(1-ethyl-1H-imidazol-4-yl)thieno[3,2-b]pyridin-7-yloxy)-3-fluorophenyl)-3-(4-fluorophenyl)-2-oxoimidazolidine-1-carboxamide], for which the IC50 (commonly the concentration that gives 50% inhibition) worked out at 80 nM in assay [1] and 240 nM in assay [2].
